{"source": "ChEMBL document CHEMBL4402546", "about": "“Urea Derivatives in Modern Drug Discovery and Medicinal Chemistry” (J Med Chem, 2020)", "key": {"[1]": {"target": "DNA gyrase subunit B (Escherichia coli, UniProt P0AES6)", "assay": "Inhibition of Escherichia coli DNA gyrase B incubated for 60 mins by malachite green dye based spectrometric analysis"}, "[2]": {"assay": "Inhibition of Escherichia coli DNA topoisomerase 4 incubated for 60 mins by malachite green dye based spectrometric analysis"}, "[3]": {"target": "Protease (Human immunodeficiency virus 1, UniProt Q9YQ12)", "sequence (Q9YQ12 whole entry)": "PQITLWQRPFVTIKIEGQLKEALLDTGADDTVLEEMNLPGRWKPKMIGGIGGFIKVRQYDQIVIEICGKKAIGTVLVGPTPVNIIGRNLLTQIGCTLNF", "assay": "Inhibition of HIV-1 protease by spectrofluorometric assay"}, "[4]": {"system": "Plasmodium falciparum", "assay": "Antimalarial activity against Plasmodium falciparum 3D7 incubated for 48 hrs by [3H]-hypoxanthine incorporation assay", "type": "functional, organism-based"}, "[5]": {"system": "Plasmodium falciparum", "assay": "Antimalarial activity against Plasmodium falciparum Dd2 incubated for 48 hrs by [3H]-hypoxanthine incorporation assay", "type": "functional, organism-based"}, "[6]": {"system": "Plasmodium berghei", "assay": "Antiparasitic activity against blood stage Plasmodium berghei ANKA infected in ARC mouse assessed as suppression of parasitemia at 32 mg/kg, sc administered twice daily with 6 hrs apart for 4 consecutive days by Giemsa staining based microscopic analysis relative to control"}, "[7]": {"target": "Metabotropic glutamate receptor 5 (Rattus norvegicus, UniProt P31424)", "assay": "Inhibition of rat mGluR5 expressed in HEK293A cells preincubated for 140 secs followed by EC20 glutamate stimulation for 74 secs and subsequent EC80 glutamate addition and measured up to 40 secs by Fluo-4-AM dye based fluorescence assay", "type": "cell-based"}, "[8]": {"target": "Metabotropic glutamate receptor 1 (Homo sapiens, UniProt Q13255)", "sequence (Q13255 whole entry)": "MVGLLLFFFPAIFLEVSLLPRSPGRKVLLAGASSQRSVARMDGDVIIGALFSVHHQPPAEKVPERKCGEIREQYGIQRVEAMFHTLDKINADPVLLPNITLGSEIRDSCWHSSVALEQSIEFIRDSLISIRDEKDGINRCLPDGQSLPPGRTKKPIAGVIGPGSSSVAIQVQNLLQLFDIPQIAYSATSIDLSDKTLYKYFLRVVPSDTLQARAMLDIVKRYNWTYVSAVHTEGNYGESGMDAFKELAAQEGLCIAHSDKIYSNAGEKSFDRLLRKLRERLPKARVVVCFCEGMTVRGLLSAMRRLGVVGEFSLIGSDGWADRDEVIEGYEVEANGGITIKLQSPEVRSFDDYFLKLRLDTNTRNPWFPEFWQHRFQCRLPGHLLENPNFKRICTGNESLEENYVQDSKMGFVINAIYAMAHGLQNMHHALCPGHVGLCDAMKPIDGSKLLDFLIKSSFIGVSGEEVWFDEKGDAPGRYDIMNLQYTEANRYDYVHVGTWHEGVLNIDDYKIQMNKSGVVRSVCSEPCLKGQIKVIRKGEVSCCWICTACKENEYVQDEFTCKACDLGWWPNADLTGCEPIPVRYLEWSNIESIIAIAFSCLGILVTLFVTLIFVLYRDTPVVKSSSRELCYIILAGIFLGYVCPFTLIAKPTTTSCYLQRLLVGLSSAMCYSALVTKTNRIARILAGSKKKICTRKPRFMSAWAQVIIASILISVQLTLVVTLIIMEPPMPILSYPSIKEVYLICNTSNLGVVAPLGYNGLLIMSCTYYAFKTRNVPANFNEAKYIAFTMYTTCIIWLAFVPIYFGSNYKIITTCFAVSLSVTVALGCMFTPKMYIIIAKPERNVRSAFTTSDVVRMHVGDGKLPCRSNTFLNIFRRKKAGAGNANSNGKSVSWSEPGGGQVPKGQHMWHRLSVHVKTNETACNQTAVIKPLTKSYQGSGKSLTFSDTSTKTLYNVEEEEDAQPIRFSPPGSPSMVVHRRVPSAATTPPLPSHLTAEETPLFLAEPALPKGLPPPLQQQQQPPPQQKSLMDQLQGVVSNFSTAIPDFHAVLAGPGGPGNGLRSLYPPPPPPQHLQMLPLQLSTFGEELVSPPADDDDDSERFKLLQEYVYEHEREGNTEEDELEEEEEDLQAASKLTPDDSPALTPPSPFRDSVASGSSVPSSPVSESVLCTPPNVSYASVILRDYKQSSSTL", "assay": "Inhibition of mGluR1 (unknown origin)"}, "[9]": {"target": "Metabotropic glutamate receptor 2 (Homo sapiens, UniProt Q14416)", "sequence (Q14416 whole entry)": "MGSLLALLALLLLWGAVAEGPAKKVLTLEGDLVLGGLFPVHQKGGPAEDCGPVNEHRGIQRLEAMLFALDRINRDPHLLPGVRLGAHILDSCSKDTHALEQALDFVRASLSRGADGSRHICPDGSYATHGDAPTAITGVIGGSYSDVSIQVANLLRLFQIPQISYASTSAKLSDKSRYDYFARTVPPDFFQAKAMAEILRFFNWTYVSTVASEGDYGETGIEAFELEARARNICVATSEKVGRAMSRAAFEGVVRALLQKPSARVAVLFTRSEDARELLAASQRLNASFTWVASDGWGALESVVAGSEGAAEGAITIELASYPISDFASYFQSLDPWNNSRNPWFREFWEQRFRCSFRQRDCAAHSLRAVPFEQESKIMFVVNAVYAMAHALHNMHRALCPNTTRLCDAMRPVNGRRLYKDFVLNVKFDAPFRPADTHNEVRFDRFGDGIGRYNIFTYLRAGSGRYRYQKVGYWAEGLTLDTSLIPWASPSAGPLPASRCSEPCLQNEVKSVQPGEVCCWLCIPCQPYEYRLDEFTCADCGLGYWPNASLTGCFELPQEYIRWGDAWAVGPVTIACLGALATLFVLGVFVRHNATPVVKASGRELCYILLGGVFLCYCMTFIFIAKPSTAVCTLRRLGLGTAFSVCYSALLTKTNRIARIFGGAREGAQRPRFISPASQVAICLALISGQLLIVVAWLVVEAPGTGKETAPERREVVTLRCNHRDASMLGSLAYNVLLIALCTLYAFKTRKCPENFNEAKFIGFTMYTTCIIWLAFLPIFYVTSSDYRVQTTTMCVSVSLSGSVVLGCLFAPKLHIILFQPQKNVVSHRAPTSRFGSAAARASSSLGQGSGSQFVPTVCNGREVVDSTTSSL", "assay": "Inhibition of mGluR2 (unknown origin)"}, "[10]": {"target": "Metabotropic glutamate receptor 3 (Homo sapiens, UniProt Q14832)", "sequence (Q14832 whole entry)": "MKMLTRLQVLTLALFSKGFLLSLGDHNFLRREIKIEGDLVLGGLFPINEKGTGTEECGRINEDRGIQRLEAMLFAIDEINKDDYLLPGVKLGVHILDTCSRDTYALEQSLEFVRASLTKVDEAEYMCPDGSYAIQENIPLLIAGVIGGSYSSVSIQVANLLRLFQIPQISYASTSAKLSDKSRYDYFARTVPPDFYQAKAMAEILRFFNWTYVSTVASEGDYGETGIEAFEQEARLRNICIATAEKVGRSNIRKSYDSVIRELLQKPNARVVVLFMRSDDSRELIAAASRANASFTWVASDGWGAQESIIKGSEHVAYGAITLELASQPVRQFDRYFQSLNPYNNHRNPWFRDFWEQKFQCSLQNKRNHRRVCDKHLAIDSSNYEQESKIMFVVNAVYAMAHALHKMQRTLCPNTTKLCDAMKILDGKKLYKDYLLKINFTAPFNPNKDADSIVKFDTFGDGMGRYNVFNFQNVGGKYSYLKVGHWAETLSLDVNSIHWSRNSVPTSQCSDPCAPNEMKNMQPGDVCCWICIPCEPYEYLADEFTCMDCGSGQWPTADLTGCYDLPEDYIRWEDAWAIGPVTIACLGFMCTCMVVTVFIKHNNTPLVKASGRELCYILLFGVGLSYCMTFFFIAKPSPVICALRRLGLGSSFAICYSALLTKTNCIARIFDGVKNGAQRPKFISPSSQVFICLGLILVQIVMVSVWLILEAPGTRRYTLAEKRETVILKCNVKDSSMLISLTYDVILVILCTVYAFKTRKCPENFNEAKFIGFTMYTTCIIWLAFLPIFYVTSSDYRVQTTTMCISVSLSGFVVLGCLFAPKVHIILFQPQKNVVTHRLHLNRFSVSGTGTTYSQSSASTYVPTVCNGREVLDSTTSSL", "assay": "Inhibition of mGluR3 (unknown origin)"}, "[11]": {"target": "Metabotropic glutamate receptor 4 (Homo sapiens, UniProt Q14833)", "sequence (Q14833 whole entry)": "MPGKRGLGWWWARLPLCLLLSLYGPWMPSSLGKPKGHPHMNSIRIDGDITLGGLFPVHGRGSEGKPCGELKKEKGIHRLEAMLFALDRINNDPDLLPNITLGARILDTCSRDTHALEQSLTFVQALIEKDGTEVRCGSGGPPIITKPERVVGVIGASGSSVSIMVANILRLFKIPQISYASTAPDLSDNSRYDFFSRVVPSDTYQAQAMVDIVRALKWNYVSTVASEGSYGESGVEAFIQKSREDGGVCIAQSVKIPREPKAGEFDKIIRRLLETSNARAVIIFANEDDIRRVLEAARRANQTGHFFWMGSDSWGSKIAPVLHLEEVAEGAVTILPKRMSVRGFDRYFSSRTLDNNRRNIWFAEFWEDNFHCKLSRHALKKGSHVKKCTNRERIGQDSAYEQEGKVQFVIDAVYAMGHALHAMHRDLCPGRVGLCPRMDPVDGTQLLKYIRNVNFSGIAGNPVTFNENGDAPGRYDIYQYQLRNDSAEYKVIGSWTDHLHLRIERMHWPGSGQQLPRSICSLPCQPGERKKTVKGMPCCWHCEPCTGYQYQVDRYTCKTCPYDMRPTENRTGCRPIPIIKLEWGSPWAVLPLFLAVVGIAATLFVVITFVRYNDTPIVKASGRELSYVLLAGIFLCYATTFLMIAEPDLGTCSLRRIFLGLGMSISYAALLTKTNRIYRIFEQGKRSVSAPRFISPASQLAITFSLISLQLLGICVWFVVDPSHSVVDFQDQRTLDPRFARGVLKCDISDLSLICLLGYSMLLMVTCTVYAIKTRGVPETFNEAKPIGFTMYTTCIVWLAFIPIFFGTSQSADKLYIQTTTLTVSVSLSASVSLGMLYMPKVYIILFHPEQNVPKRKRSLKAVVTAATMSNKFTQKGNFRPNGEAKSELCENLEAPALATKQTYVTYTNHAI", "assay": "Inhibition of mGluR4 (unknown origin)"}, "[12]": {"target": "Metabotropic glutamate receptor 7 (Homo sapiens, UniProt Q14831)", "assay": "Inhibition of mGluR7 (unknown origin)"}, "[13]": {"target": "Metabotropic glutamate receptor 8 (Homo sapiens, UniProt O00222)", "assay": "Inhibition of mGluR8 (unknown origin)"}, "[14]": {"target": "Serine/threonine-protein kinase B-raf (Homo sapiens, UniProt P15056, V600E)", "assay": "Inhibition of BRAF V600E mutant (unknown origin)"}, "[15]": {"target": "RAF proto-oncogene serine/threonine-protein kinase (Homo sapiens, UniProt P04049)", "sequence (P04049 whole entry)": "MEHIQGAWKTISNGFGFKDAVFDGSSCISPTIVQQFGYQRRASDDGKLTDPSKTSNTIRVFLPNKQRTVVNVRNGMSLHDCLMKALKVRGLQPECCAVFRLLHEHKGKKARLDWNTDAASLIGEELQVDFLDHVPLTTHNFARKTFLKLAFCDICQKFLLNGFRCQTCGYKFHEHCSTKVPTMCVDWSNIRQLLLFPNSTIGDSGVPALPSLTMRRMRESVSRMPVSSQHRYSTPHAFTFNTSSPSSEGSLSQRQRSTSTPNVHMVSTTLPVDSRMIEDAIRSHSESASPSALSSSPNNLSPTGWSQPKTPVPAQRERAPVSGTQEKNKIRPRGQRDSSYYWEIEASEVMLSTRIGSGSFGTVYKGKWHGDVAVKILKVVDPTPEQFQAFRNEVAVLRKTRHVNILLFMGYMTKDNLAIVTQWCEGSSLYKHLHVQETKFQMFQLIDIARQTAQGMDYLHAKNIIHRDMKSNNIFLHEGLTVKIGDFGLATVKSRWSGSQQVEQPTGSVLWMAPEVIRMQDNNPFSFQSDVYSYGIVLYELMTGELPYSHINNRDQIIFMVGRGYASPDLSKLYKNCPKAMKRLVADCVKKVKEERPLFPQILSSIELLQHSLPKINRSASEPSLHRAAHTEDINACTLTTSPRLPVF", "assay": "Inhibition of c-RAF (unknown origin)"}, "[16]": {"system": "LoVo", "assay": "Antiproliferative activity against human LoVo cells after 72 hrs by CCK8 assay", "type": "functional, cell-based"}, "[17]": {"system": "HT-29", "assay": "Antiproliferative activity against human HT-29 cells after 72 hrs by CCK8 assay", "type": "functional, cell-based", "conditions": "HT-29, 72 h"}, "[18]": {"assay": "Half life in schizophrenic patient at 1.5 to 12.5 mg/day", "type": "ADME", "conditions": "human, in vivo"}, "[19]": {"assay": "Half life in plasma (unknown origin)", "type": "ADME, cell-free"}}, "data": [{"smiles": "CCNC(=O)Nc1nc2cc(-c3cnc(N4CCC(C(=O)O)CC4)nc3)cc(-c3ccccn3)c2s1", "values": [{"measurement": "IC50", "setting": "[1]", "result": "< 199", "unit": "nM"}, {"measurement": "IC50", "setting": "[2]", "result": "< 0.1", "unit": "µg/mL"}]}, {"smiles": "CC(C)CN(C[C@@H](O)[C@H](Cc1ccccc1)NC(=O)[C@H](CC(N)=O)NC(=O)c1ccc2ccccc2n1)C(=O)NC(C)(C)C", "values": [{"measurement": "IC50", "setting": "[3]", "result": 6.3, "unit": "nM"}]}, {"smiles": "CCCCNC(=O)NCCc1c[nH]c2c1C(=O)C1=C(NC=CS1(=O)=O)C2=O", "values": [{"measurement": "IC50", "setting": "[4]", "result": 644, "unit": "nM"}, {"measurement": "IC50", "setting": "[5]", "result": 525, "unit": "nM"}, {"measurement": "Activity", "setting": "[6]", "result": 26, "unit": "%"}]}, {"smiles": "N#Cc1cc(F)cc(NC(=O)Nc2ccc(Cl)cn2)c1", "values": [{"measurement": "IC50", "setting": "[7]", "result": 13, "unit": "nM"}, {"measurement": "IC50", "setting": "[8]", "result": "> 30000", "unit": "nM"}, {"measurement": "IC50", "setting": "[9]", "result": "> 30000", "unit": "nM"}, {"measurement": "IC50", "setting": "[10]", "result": "> 30000", "unit": "nM"}, {"measurement": "IC50", "setting": "[11]", "result": "> 30000", "unit": "nM"}, {"measurement": "IC50", "setting": "[12]", "result": "> 30000", "unit": "nM"}, {"measurement": "IC50", "setting": "[13]", "result": "> 30000", "unit": "nM"}]}, {"smiles": "CNC(=O)c1cc(Oc2cccc3nc(NC(=O)Nc4ccc(Cl)c(C(F)(F)F)c4)ccc23)ccn1", "values": [{"measurement": "IC50", "setting": "[14]", "result": 316, "unit": "nM"}, {"measurement": "IC50", "setting": "[15]", "result": 61, "unit": "nM"}]}, {"smiles": "N#Cc1cc(O)ccc1-c1ccc(NC(=O)Nc2ccc(Cl)c(C(F)(F)F)c2)cc1", "values": [{"measurement": "IC50", "setting": "[16]", "result": 1500, "unit": "nM"}, {"measurement": "IC50", "setting": "[17]", "result": 1900, "unit": "nM"}]}, {"smiles": "CN(C)C(=O)N[C@H]1CC[C@H](CCN2CCN(c3cccc(Cl)c3Cl)CC2)CC1", "note": "[CARIPRAZINE]", "values": [{"measurement": "half-life", "setting": "[18]", "result": "48 to 120", "unit": "h"}]}, {"smiles": "CC(C)c1nc(CN(C)C(=O)N[C@H](C(=O)N[C@@H](Cc2ccccc2)C[C@H](O)[C@H](Cc2ccccc2)NC(=O)OCc2cncs2)C(C)C)cs1", "note": "[RITONAVIR]", "values": [{"measurement": "half-life", "setting": "[19]", "result": 1.2, "unit": "h"}]}]}
